Reference: patent publication US6521619B2, “Aryl phenylcyclopropyl sulfide derivatives and their use as cell adhesion inhibiting anti-inflammatory and immune suppressive agents” (Icos Corporation, priority 2000, dated 2003)
Each block holds one molecule with its values, some of them ahead of it.

Columns and labels:
[1] = system: JY-8 cells (expressing LFA-1) adhering to immobilized ICAM-1; assay: ICAM-1/JY-8 Cell Adhesion Assay (46B); assay type: cell-based, human; conditions: JY-8 cell adhesion to ICAM-1; for inhibition at 1 µM / inhibition at 2 µM / inhibition at 4 µM: Homo sapiens; for inhibition at 1 µM: @ 1 μM compound (cell); for % inhibition / inhibition at 2 µM: @ 2 μM compound (cell); for inhibition at 4 µM: @ 4 μM compound
Protocol: Biologically relevant activity of the compounds in this invention was confirmed using a cell-based adhesion assay, (described below as assay 46B) which measured the ability of the present compounds to block the adherence of JY-8 cells (a human EBV-transformed B cell line expressing LFA-1 on its surface) to immobilized ICAM-1.
46B. ICAM-1 /JY-8 Cell Adhesion Assay
For measurement of inhibitory activity in the cell-based adhesion assay, 96-well microtiter plates are coated with 70 μL of recombinant ICAM-1/g (ICOS Corporation) at a concentration of 5 μg/mL in D-PBS w/o Ca^++ or Mg^++ overnight at 4° C. The wells are then washed twice with D-PBS and blocked by addition of 200 μL of D-PBS, 5% fish skin gelatin by incubation for 1 hour at room temperature. Fluorescent tagged JY-8 cells (a human EBV-transformed B cell line expressing LFA-1 on its surface; 50 μL at 2×10^6 cells/ml in RPMI 1640 (standard cell culture medium)/1% fetal bovine serum) are added to the wells. For fluorescent labeling of JY-8 cells, 5×10^6 cells washed once in RPMI 1640 are resuspended in 1 mL of RPMI 1640 containing 2 μM Calceiun AM (MolecularProbes), are incubated at 37° C for 30 minutes and washed once with RPMI-1640/1% fetal bovine serum. Dilutions of compounds to be assayed for ICAM-1/LFA-1 antagonistic activity are prepared in RPMI-1640/1% fetal bovine serum from 10 mM stock solutions in DMSO and 50 μL are added to duplicate wells. Microtiter plates are incubated for 45 minutes at room temperature and the wells are washed gently once with RPMI-1640/1% fetal bovine serum. Fluorescent intensity is measured in a fluorescent plate reader with an excitation wavelength at 485 nm and an emission wavelength at 530 nm. The percent inhibition of a candidate compound at a given concentration is calculated using the following equation: [formula]
and these concentration/inhibition data are used to generate dose response curves, from which IC50 values are derived.

[2] = target: T1, ICAM-1/LFA-1 interaction (recombinant LFA-1, biotinylated recombinant ICAM-1/Ig) (Homo sapiens, UniProt P20701); assay: ICAM-1/LFA-1 Biochemical Interaction Assay (46A); assay type: binding; conditions: for inhibition at 2 µM: read-out: % inhibition
T1 construct: Recombinant LFA-1 (100 mL of 0.7 mg/ml, ICOS Corporation) in D-PBS is then added to each well
T1 sequence (P20701 26-1170): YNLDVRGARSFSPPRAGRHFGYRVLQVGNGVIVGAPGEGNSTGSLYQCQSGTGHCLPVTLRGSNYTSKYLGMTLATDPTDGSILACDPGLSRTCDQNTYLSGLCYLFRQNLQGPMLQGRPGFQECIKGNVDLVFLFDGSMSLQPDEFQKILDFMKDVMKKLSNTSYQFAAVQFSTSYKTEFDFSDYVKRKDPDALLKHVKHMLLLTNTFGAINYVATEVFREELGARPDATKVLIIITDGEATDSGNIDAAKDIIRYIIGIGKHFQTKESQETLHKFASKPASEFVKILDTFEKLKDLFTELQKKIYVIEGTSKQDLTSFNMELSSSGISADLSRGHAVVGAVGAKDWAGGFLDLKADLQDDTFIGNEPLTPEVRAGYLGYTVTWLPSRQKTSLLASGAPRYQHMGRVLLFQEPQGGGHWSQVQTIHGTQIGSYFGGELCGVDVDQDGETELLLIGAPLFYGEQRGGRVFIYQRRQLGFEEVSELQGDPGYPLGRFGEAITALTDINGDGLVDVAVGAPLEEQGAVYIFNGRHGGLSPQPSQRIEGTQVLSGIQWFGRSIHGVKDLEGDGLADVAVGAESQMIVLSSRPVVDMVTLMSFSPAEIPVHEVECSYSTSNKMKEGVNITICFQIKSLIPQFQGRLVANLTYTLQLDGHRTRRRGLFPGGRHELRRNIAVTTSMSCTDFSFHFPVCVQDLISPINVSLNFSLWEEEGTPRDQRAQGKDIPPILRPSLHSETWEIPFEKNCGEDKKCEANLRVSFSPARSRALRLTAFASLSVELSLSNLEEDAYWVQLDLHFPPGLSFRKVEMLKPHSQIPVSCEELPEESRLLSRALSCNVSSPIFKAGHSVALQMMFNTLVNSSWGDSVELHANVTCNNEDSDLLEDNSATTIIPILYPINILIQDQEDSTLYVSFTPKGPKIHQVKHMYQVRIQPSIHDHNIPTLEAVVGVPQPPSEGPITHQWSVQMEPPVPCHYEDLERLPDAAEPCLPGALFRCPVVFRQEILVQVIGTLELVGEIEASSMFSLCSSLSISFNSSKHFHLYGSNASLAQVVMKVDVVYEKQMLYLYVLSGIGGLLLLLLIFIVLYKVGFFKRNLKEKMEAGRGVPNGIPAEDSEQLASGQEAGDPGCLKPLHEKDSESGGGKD
T1 sequence (P05107 23-769 partner): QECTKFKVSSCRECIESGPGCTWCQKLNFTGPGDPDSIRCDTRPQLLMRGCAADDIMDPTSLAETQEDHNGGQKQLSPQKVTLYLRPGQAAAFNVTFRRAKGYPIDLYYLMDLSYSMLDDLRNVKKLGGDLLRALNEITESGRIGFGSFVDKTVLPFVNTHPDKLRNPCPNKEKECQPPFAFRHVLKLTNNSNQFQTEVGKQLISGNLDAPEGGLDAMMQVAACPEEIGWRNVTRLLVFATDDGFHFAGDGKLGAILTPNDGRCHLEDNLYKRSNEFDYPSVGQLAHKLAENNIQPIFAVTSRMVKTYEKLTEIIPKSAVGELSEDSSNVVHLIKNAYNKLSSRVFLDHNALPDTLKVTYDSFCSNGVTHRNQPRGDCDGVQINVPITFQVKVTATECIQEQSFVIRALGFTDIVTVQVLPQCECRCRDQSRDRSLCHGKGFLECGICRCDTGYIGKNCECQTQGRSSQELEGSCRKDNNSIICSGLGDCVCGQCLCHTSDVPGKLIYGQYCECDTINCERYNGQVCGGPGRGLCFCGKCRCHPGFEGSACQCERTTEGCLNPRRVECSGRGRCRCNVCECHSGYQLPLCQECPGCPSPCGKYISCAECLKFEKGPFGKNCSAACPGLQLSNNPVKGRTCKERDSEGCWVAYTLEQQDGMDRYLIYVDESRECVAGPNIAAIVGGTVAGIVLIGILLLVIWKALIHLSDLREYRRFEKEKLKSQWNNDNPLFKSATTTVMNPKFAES
Protocol: Compounds that antagonize the interaction between ICAM-1 and LFA-1 can be identified, and their activities quantitated, using both biochemical and cell-based adhesion assays. A primary biochemical assay, described below as assay 46A, was utilized to measure the ability of the present compounds to block the interaction between the integrin LFA-1 and its adhesion partner ICAM-1.
46A. ICAM-1/LFA-1 Biochemical Interaction Assay
In the biochemical assay, 100 mL of anti-LFA-1 antibody (ICOS Corporation) at a concentration of 5 mg/ml in Dulbecco's phosphate-buffered saline (D-PBS) is used to coat wells of a 96-well microtiter plate overnight at 4° C. The wells are then washed twice with wash buffer (D-PBS w/o Ca^++ or Mg^++, 0.05% Tween 20) and blocked by addition of 200 mL of D-PBS, 5% fish skin gelatin. Recombinant LFA-1 (100 mL of 0.7 mg/ml, ICOS Corporation) in D-PBS is then added to each well. Incubation continues for 1 hour at room temperature and the wells are washed twice with wash buffer. Serial dilutions of compounds being assayed as ICAM-1/LFA-1 antagonists, prepared as 10 mM stock solutions in dimethyl sulfoxide (DMSO), are diluted in D-PBS, 2 mM MgCl2, 1% fish skin gelatin and 50 mL of each dilution added to duplicate wells. This is followed by addition of […] of 0.8 mg/ml biotinylated recombinant ICAM-1/Ig (ICOS Corporation) to the wells and the plates are incubated at room temperature for 1 hour The wells are then washed twice with wash buffer and 100 mL of Europium-labeled Streptavidin (Wallac Oy) diluted 1:100 in Delfia assay buffer (Wallac Oy) are added to the wells. Incubation proceeds for 1 hour at room temperature. […] Incubation proceeds for 5 minutes with constant mixing.
where “background” refers to wells that are not coated with anti-LFA-1 antibody.

inhibition at 4 µM ([2]; @ 4 μM compound): 93%
Molecule: CN(CCCN1CCCC1=O)C(=O)C1CC1c1ccc(Sc2ccccc2N2CCOCC2)c(C(F)(F)F)c1 (racemic) [Example 13, (±)-(2-Morpholin-1-ylphenyl)[2-trifluoromethyl-2-(trans-(2-((3-(1-pyrrolidin-2-onyl)-propyl-N-methylamino)carbonyl)cycloprop-1-yl)phenyl]sulfide]
inhibition at 1 µM [1]: 86%

% inhibition ([2]; @ 4 μM compound): 96% @ 4 μM
Molecule: (±)-(3-Morpholin-1-ylphenyl)[2-trifluoromethyl-4-(trans-(2-((3-(1-pyrrolidin-2-onyl)-prop-1-ylamino)carbonyl)cycloprop-1-yl)phenyl]sulfide [Example 11]
% inhibition [1]: 86% @ 2 μM

inhibition at 2 µM ([2]; @ 2 μM compound): 96%
Molecule: CC(C)c1ccccc1Sc1ccc(C2CC2C(=O)NCCC(=O)O)c(Cl)c1Cl (racemic) [Example 16, (±)-(2-Isopropylphenyl)[2,3-dichloro-4-(trans-(2-(2-carboxyethylamino)carbonyl)cycloprop-1-yl)phenyl]sulfide]
inhibition at 2 µM [1]: 88%

inhibition at 4 µM ([2]; @ 4 μM compound): 95%
Molecule: O=C(NCCCN1CCCC1=O)C1CC1c1ccc(Sc2ccccc2N2CCCCC2)c(C(F)(F)F)c1 (racemic) [Example 9, (±)-(2-Piperidin-1-ylphenyl)[2-trifluoromethyl-4-(trans-(2-((3-(1-pyrrolidin-2-onyl)-prop-1-ylamino)carbonyl)cycloprop1-yl)phenyl]sulfide]
inhibition at 4 µM [1]: 76%

inhibition at 2 µM ([2]; @ 2 μM compound): 94%
inhibition at 4 µM ([2]; @ 4 μM compound): 94%
Molecule: O=C(NCCCN1CCCC1=O)C1CC1c1ccc(Sc2ccccc2N2CCOCC2)c(Cl)c1 (racemic) [Example 8, (±)-(2-Morpholin-1-ylphenyl)[2-chloro-4-(trans-(2-((3-(1-pyrrolidin-2-onyl)-prop-1-ylamino)carbonyl)cycloprop-1-yl)phenyl]sulfide]
inhibition at 4 µM [1]: 70%

% inhibition ([2]; @ 2 μM compound): 97% @ 2 μM
Molecule: (±)-(2-Piperidin-1-ylphenyl)[2-trifluoromethyl-4-(trans-(2-((3-(1-pyrrolidin-2-onyl)-prop-1-ylamino)carbonyl)cycloprop1-yl)phenyl]sulfide [Example 9]
% inhibition [1]: 89% @ 2 μM

inhibition at 2 µM ([2]; @ 2 μM compound): 93%
Molecule: CC(C)c1ccccc1Sc1ccc(C2CC2C(=O)N2CCC(C(=O)O)CC2)c(Cl)c1Cl (racemic) [Example 18, (±)-(2-Isopropylphenyl)[2,3-dichloro-4-(trans-(2-(4-carboxypiperidin-1-yl)carbonyl)cycloprop-1-yl)phenyl]sulfide]
inhibition at 2 µM [1]: 84%

inhibition at 4 µM ([2]; @ 4 μM compound): 92%
Molecule: O=C(NCCCN1CCCC1=O)C1CC1c1ccc(Sc2ccccc2Br)c(Cl)c1Cl (racemic) [Example 14, (±)-(2-Bromophenyl)[2,3-dichloro-4-(trans-(2-((3-(1-pyrrolidin-2-onyl)-prop-1-ylamino)carbonyl)cycloprop-1-yl)phenyl]sulfide]
inhibition at 1 µM [1]: 80%
